# pIC50, pKd: −log10 of the molar value. Counter-ions that a name gives are not always drawn. Like-named read-outs stand apart in the source and are kept apart here. Positions of bridges follow the written chain, without caps; N, C: chain ends. Non-standard residues stand in square brackets, D forms with d. Residues, ends and D or L forms follow the SMILES beside them. *: point of attachment. DOTA = O=C(O)CN1CCN(CC(=O)O)CCN(CC(=O)*)CCN(CC(=O)O)CC1; PEG10 = NCCOCCOCCOCCOCCOCCOCCOCCOCCOCCOCCC(=O)O; Trp(5-OH) = N[C@@H](Cc1c[nH]c2ccc(O)cc12)C(=O)O; NMePhe(4-F) = CN[C@@H](Cc1ccc(F)cc1)C(=O)O; NMehPhe = CN[C@@H](CCc1ccccc1)C(=O)O; Aad = N[C@@H](CCCC(=O)O)C(=O)O; Gly(cPr) = N[C@H](C(=O)O)C1CC1; aThr = C[C@H](O)[C@H](N)C(=O)O; NMeK = CN[C@@H](CCCCN)C(=O)O; NMeDap = CN[C@@H](CN)C(=O)O
# Legend:
# Format in all cases: binding
# human HER2 (23-652) [1] = biological target: T1, human HER2 (23-652) (Homo sapiens, UniProt P04626); assay: TR-FRET competition assay for peptide potency, human HER2; parameters: towards human HER2 (23-652) and mouse HER2 (23-653); made in house; host or cells: mammalian cells
# Experimental: (§1) Both proteins containing a His-, Avi-tag and biotin in Nterminus, were expressed in mammalian cells and produced in house. […] Standard assay conditions consist of 20 uL total volume in white 384-well plates (Greiner), in 10 mM HEPES buffer containing 150 mM NaCl, 3 mM EDTA, 0.05% Tween20 and 1% final DMSO. […] The ratiometric FRET assay readout is calculated from the ratio of the raw data of the two distinct fluorescence signals measured in time resolved mode (fluorescence 665 nm/fluorescence 620 nm). IC50 values were calculated with the standard Novartis in-house assay data analysis software (Helios software application, Novartis Institutes for BioMedical Research, unpublished) using the methods described in Comput. Methods. Programs. Biomed. 2006, 82, 31-37 (regression algorithms for nonlinear dose-response curve fitting).
# mouse HER2 (23-653) = mouse HER2 (23-653) (Mus musculus, UniProt P70424); assay: TR-FRET competition assay for peptide potency, mouse HER2; parameters: mouse HER2 (23-653) using a Cy5 labeled peptide as a probe; made in house; host or cells: mammalian cells
# Experimental: as §1
# human HER2 (23-652) [2] = biological target: T1, human HER2 (23-652); assay: Surface plasmon resonance (SPR) for assessment of peptide affinity, human HER2; parameters: towards human HER2 (23-652) and mouse HER2 (23-653); made in house; conditions: SPR, human HER2 extracellular domain, 25° C., 1:1 binding model; read-out: huHER2-SPR-ONC KD
# Experimental: Each protein was immobilized either onto a SA sensorchip (Cytiva, BR-1005-31) or CM5 sensorchip (Cytiva, BR-1005-30) to a density of 800-2000 RU. […] For the assay setup the same conditions (flow rate, running buffer, peptide dilution) as described above were used. In a first step the Anti Fc IgG Ab (from Human Antibody Capture Kit, Ref. 29234600, Cytiva) was diluted into acetate pH 5.0 at 25 ug/mL and immobilized at a flow rate of 10 uL/min over 360 s to reach a density around 6000 RU. […] The peptides were tested with an association time of 280 s followed by a dissociation time of 3000 s at a flow rate of 30 uL/min. The regeneration was done using 3 M magnesium chloride regeneration solution as obtained with a contact time of 30 s at a flow rate of 10 uL/min. Curve fitting was performed using the BiacoreTM 8K evaluation software.
# [3] = TR-FRET competition with Cy5 labeled peptide probe, 0.1 nM mouse HER2, 24 h incubation, read-out: moHER2 TR-FRET IC50
# [4] = TR-FRET competition with Cy5 labeled peptide probe, 0.1 nM human HER2, 24 h incubation, read-out: huHER2 TR-FRET IC50
pIC50 (human HER2 (23-652) [1]; read-out: huHER2 TR-FRET IC50),pIC50 (mouse HER2 (23-653); [3]),pKd (human HER2 (23-652) [2]),pIC50 (human HER2 (23-652) [1]; [4]),"pIC50 (human HER2 (23-652) [1]; value in parentheses (**): recalculated after further repetition, read-out: huHER2 TR-FRET IC50, recalculated value achieved after further repetition)","pIC50 (mouse HER2 (23-653); value in parentheses (**): recalculated after further repetition, read-out: moHER2 TR-FRET IC50, recalculated value achieved after further repetition)",Structure (SMILES)
,9.15,9.15,9.30,,,CC(=O)NCCCC[C@H]1C(=O)N[C@@H](Cc2c[nH]c3ccc(O)cc23)C(=O)N[C@@H](Cc2c[nH]c3ccccc23)C(=O)N[C@@H](C2CC2)C(=O)N(C)[C@H](C(=O)N(C)[C@@H](Cc2ccc(F)cc2)C(N)=O)CNC(=O)CCC[C@H](NC(=O)CCOCCOCCOCCOCCOCCOCCOCCOCCOCCOCCNC(=O)CN2CCN(CC(=O)O)CCN(CC(=O)O)CCN(CC(=O)O)CC2)C(=O)N[C@@H](Cc2ccc(O)cc2)C(=O)N[C@@H](CO)C(=O)N(C)[C@@H](CCc2ccccc2)C(=O)N1C [Example C5] ({DOTA-PEG10}-[Aad]YS[NMehPhe][NMeK](Ac)[Trp(5-OH)]W[Gly(cPr)][NMeDap][NMePhe(4-F)]-NH2; lactam 1-9)
,,9.52,9.30,9.52,9.00,CC(=O)NCCCC[C@H]1C(=O)N[C@@H](Cc2c[nH]c3ccc(O)cc23)C(=O)N[C@@H](Cc2c[nH]c3ccccc23)C(=O)N[C@@H]([C@H](C)O)C(=O)N(C)[C@H](C(=O)N(C)[C@@H](Cc2ccc(F)cc2)C(=O)N[C@@H](CCCCNC(=O)CN2CCN(CC(=O)O)CCN(CC(=O)O)CCN(CC(=O)O)CC2)C(N)=O)CNC(=O)CCC[C@H](NC(C)=O)C(=O)N[C@@H](Cc2ccc(O)cc2)C(=O)N[C@@H](CO)C(=O)N(C)[C@@H](CCc2ccccc2)C(=O)N1C [Example C6]
,> 10.00,> 10.00,> 10.00,,,"CC(=O)NCCCC[C@H]1C(=O)N[C@@H](Cc2c[nH]c3ccc(O)cc23)C(=O)N[C@@H](Cc2c[nH]c3ccccc23)C(=O)N[C@@H](C2CC2)C(=O)N(C)[C@H](C(=O)N(C)[C@@H](Cc2ccc(F)cc2)C(=O)N[C@@H](CCCCNC(=O)CCC(C(=O)O)N2CCN(CC(=O)O)CCN(CC(=O)O)CC2)C(N)=O)CNC(=O)CCC[C@H](NC(C)=O)C(=O)N[C@@H](Cc2ccc(O)cc2)C(=O)N[C@@H](CO)C(=O)N(C)[C@@H](CCc2ccccc2)C(=O)N1C (single isomer, unassigned) [Example C34]"
,8.48,,8.68,,,CC(=O)NCCCC[C@H]1C(=O)N[C@@H](Cc2c[nH]c3ccc(O)cc23)C(=O)N[C@@H](Cc2c[nH]c3ccccc23)C(=O)N[C@@H](C2CC2)C(=O)N(C)[C@H](C(=O)N(C)[C@@H](Cc2ccc(F)cc2)C(N)=O)CNC(=O)CCC[C@H](NC(=O)CN2CCN(CC(=O)O)CCN(CC(=O)O)CCN(CC(=O)O)CC2)C(=O)N[C@@H](Cc2ccc(O)cc2)C(=O)N[C@@H](CO)C(=O)N(C)[C@@H](CCc2ccccc2)C(=O)N1C [Example C8] ({DOTA}-[Aad]YS[NMehPhe][NMeK](Ac)[Trp(5-OH)]W[Gly(cPr)][NMeDap][NMePhe(4-F)]-NH2; lactam 1-9)

# The next lines start with the molecule.
Structure (SMILES),pIC50 (human HER2 (23-652) [1]; read-out: huHER2 TR-FRET IC50),pIC50 (mouse HER2 (23-653); [3]),pKd (human HER2 (23-652) [2]),pIC50 (human HER2 (23-652) [1]; [4]),"pIC50 (human HER2 (23-652) [1]; value in parentheses (**): recalculated after further repetition, read-out: huHER2 TR-FRET IC50, recalculated value achieved after further repetition)","pIC50 (mouse HER2 (23-653); value in parentheses (**): recalculated after further repetition, read-out: moHER2 TR-FRET IC50, recalculated value achieved after further repetition)"
"COCCOCCOCCOCCOCCOCCOCCOCCOCCOCCOCCOCCC(=O)N[C@H]1CCCC(=O)NC[C@@H](C(=O)N(C)[C@@H](Cc2ccc(F)cc2)C(=O)N[C@@H](CCCCN)C(N)=O)N(C)C(=O)[C@H](C2CC2)NC(=O)[C@H](Cc2c[nH]c3ccccc23)NC(=O)[C@H](Cc2c[nH]c3ccc(O)cc23)NC(=O)[C@H](CCCCNC(C)=O)N(C)C(=O)[C@H](CCc2ccccc2)N(C)C(=O)[C@H](CO)NC(=O)[C@H](Cc2ccc(O)cc2)NC1=O [Example A43, TFA salt]",> 10.00,9.70,9.70,,,
CC(=O)NCCCC[C@H]1C(=O)N[C@@H](Cc2c[nH]c3ccc(O)cc23)C(=O)N[C@@H](Cc2c[nH]c3ccccc23)C(=O)N[C@@H](C2CC2)C(=O)N(C)[C@H](C(=O)N(C)[C@@H](Cc2ccc(F)cc2)C(=O)N[C@@H](CCCCNC(=O)CN2CCN(CC(=O)O)CCN(CC(=O)O)CC2)C(N)=O)CNC(=O)CCC[C@H](NC(C)=O)C(=O)N[C@@H](Cc2ccc(O)cc2)C(=O)N[C@@H](CO)C(=O)N(C)[C@@H](CCc2ccccc2)C(=O)N1C [Example B10],> 10.00,> 10.00,> 10.00,,,
CC(=O)NCCCC[C@H]1C(=O)N[C@@H](Cc2c[nH]c3ccc(O)cc23)C(=O)N[C@@H](Cc2c[nH]c3ccccc23)C(=O)N[C@@H](C2CC2)C(=O)N(C)[C@H](C(=O)N(C)[C@@H](Cc2ccc(F)cc2)C(=O)N[C@@H](CCCCNC(=O)CC[C@H](C(=O)O)N2CCN(CC(=O)O)CCN(CC(=O)O)CCN(CC(=O)O)CC2)C(N)=O)CNC(=O)CCC[C@H](NC(C)=O)C(=O)N[C@@H](Cc2ccc(O)cc2)C(=O)N[C@@H](CO)C(=O)N(C)[C@@H](CCc2ccccc2)C(=O)N1C [Example B12],> 10.00,> 10.00,> 10.00,,,
CC(=O)N[C@H]1CCCC(=O)NC[C@@H](C(=O)N(C)[C@@H](Cc2ccc(F)cc2)C(=O)N[C@@H](CCCCNC(=O)CN2CCN(CC(=O)O)CCN(CC(=O)O)CCN(CC(=O)O)CC2)C(N)=O)N(C)C(=O)[C@H](C2CC2)NC(=O)[C@H](Cc2c[nH]c3ccccc23)NC(=O)[C@H](Cc2c[nH]c3ccc(O)cc23)NC(=O)[C@H](CCCCNC(=O)CO)N(C)C(=O)[C@H](CCc2ccccc2)N(C)C(=O)[C@H](CO)NC(=O)[C@H](Cc2ccc(O)cc2)NC1=O [Example C20],,9.52,,10.00,,
"CC(=O)NCCCC[C@H]1C(=O)N[C@@H](Cc2c[nH]c3ccc(O)cc23)C(=O)N[C@@H](Cc2c[nH]c3ccccc23)C(=O)N[C@@H]([C@H](C)O)C(=O)N(C)[C@H](C(=O)N(C)[C@@H](Cc2ccc(F)cc2)C(N)=O)CNC(=O)CCC[C@H](NC(C)=O)C(=O)N[C@@H](Cc2ccc(O)cc2)C(=O)N[C@@H](CO)C(=O)N(C)[C@@H](CCc2ccccc2)C(=O)N1C [Example A6, (3S,6S,9S,12S,15S,18S,21S,24S,27S)-9-((1H-indol-3-yl)methyl)-27-acetamido-15-(4-acetamidobutyl)-N-((S)-1-amino-3-(4-fluorophenyl)-1-oxopropan-2-yl)-12-((5-hydroxy-1H-indol-3-yl)methyl)-24-(4-hydroxybenzyl)-6-((S)-1-hydroxyethyl)-21-(hydroxymethyl)-N,4,16,19-tetramethyl-5,8,11,14,17,20,23,26,31-nonaoxo-18-phenethyl-1,4,7,10,13,16,19,22,25-nonaazacyclohentriacontane-3-carboxamide] (Ac-[Aad]YS[NMehPhe][NMeK](Ac)[Trp(5-OH)]W[aThr][NMeDap][NMePhe(4-F)]-NH2; lactam 1-9)",8.89,,,,,
"CC(=O)NCCCC[C@H]1C(=O)N[C@@H](Cc2c[nH]c3ccc(O)cc23)C(=O)N[C@@H](Cc2c[nH]c3ccccc23)C(=O)N[C@@H](C2CC2)C(=O)N(C)[C@H](C(=O)N(C)[C@@H](Cc2ccc(F)cc2)C(=O)N[C@@H](CCCCN)C(N)=O)CNC(=O)CCC[C@H](NC(C)=O)C(=O)N[C@H](Cc2ccc(O)cc2)C(=O)N[C@H](CO)C(=O)N(C)[C@@H](CCc2ccccc2)C(=O)N1C [Example A48, TFA salt]",5.08,< 5.00,,,,
CC(=O)NCCCC[C@H]1C(=O)N[C@@H](Cc2c[nH]c3ccc(O)cc23)C(=O)N[C@@H](C)C(=O)N[C@@H](C2CC2)C(=O)N(C)[C@H](C(=O)N(C)[C@@H](Cc2ccc(F)cc2)C(=O)N[C@@H](CCCCNC(=O)CN2CCN(CC(=O)O)CCN(CC(=O)O)CCN(CC(=O)O)CC2)C(N)=O)CNC(=O)CCC[C@H](NC(C)=O)C(=O)N[C@@H](Cc2ccc(O)cc2)C(=O)N[C@@H](CO)C(=O)N(C)[C@@H](CCc2ccccc2)C(=O)N1C [Example C32] (Ac-[Aad]YS[NMehPhe][NMeK](Ac)[Trp(5-OH)]A[Gly(cPr)][NMeDap][NMePhe(4-F)]K(DOTA)-NH2; lactam 1-9),,< 5.00,,5.01,,
CC(=O)NCCCC[C@H]1C(=O)N[C@@H](Cc2c[nH]c3ccc(O)cc23)C(=O)N[C@@H](Cc2c[nH]c3ccccc23)C(=O)N[C@@H](C2CC2)C(=O)N(C)[C@H](C(=O)N(C)[C@@H](Cc2ccc(F)cc2)C(=O)N[C@@H](CCCCNC(=O)CN2CCN(CC(=O)O)CCN(CC(=O)O)CCN(CC(=O)O)CC2)C(N)=O)CNC(=O)CCC[C@H](NC(C)=O)C(=O)N[C@H](Cc2ccc(O)cc2)C(=O)N[C@H](CO)C(=O)N(C)[C@@H](CCc2ccccc2)C(=O)N1C [Example C3],,< 5.00,,< 5.02,,
